From patent publication US8163894B2, “DNA for eukaryotic expression of CymR” (National Research Council of Canada, priority 2001, dated 2012)

Test system: not listed separately
Assay: Water solubility of effectors
Assay type: physicochemical
Settings: not given

Question: With CC(C)c1ccc(C(=O)[O-])cc1.[Na+] [sodium salt of cumic acid] as the molecule, how does the water solubility read?
Answer: water-soluble

Test system: 293 CuO-GFP clone 13
Assay: Testing of cumate analogues as effector molecule (FIG. 16)
Assay type: cell-based
Settings: not given
Description: Of course cumate can be substituted for various cumate analogues also referred to as effector molecule as described before.
The Deposits were received by the authority on Apr. 10, 2002, and were given accession number IDA-100402-1 and IDA-100402-2, respectively. 293 CuO-GFP clone 13 was also deposited on Apr. 10, 2002 in the same IDA and was given accession number IDA-100401-3.

Question: For CN(C)c1ccc(C(=O)O)cc1 [C11, p-N-dimethylaminobenzoic acid], which “activity as activator (effector molecule)” value (“activity as activator” below) is on record?
Answer: good activators

Question: Which “activity as activator” value does the source give for CC(C)Cc1ccc(C(=O)O)cc1 [C6, p-isobutylbenzoic acid] here?
Answer: good activators

Question: With CCCc1ccc(C(=O)O)cc1 [C4, p-Propylbenzoic acid] as the molecule, how does the “activity as activator” value read?
Answer: good activators

Question: Which “activity as activator” value does the source give for CCNc1ccc(C(=O)O)cc1 [C13, p-N-ethylaminobenzoic acid] here?
Answer: good activators

Test system: CymR-mediated expression (P2-cymlacZ fusion system)
Assay: Induction of expression in the P2-cymlacZ fusion system by candidate effectors
Assay type: cell-based, Pseudomonas putida
Settings: not given
Description: The need to solubilize p-cumate (p-cumic acid) in organic solvent (e.g. ethanol or dimethyl formamide) is a great disadvantage. The present invention thus provides water-soluble effectors as well as possibly expanding the spectrum of inducers beyond p-cumate. At first, cumic alcohol, 4-methyl benzylalcohol, ethyltoluene, indole-2-carboxylic acid, indole-3-carboxylic acid, benzoic acid, 3- and 4-hydroxybenzoic acids, 3,4-dihyroxybenzoic acid and 2,4-dihydrobenzoic acid were tried. […] In this P2-cymlacZ fusion system, the threshold cumate concentration for induction is in the order of 0.002 millimolar (mM).
The sodium salt of cumic acid was also tested vs cumic acid (taken as cumate).
Both sodium benzoate and sodium toluate are ineffective.

Question: With CC(C)c1ccc(C(=O)[O-])cc1.[Na+] [sodium salt of cumic acid] as the molecule, how does the “threshold of concentration giving a response, vs cumic acid” value read?
Answer: did not change appreciably

Question: With O=C(O)c1ccc(O)c(O)c1 [3,4-dihyroxybenzoic acid] as the molecule, how does the “ability to act as inducer” value read?
Answer: none of these compounds could act as effective inducers

Question: Which “ability to act as inducer” value does the source give for CCc1ccc(C(=O)[O-])cc1.[Na+] [Na^+ 4-ethylbenzoate] here?
Answer: acts as an inducer

Question: What about the “response compared with parental cumate” value of the same molecule?
Answer: not as good as the parental cumate

Question: For O=C(O)c1cccc(O)c1 [3-hydroxybenzoic acid, 3- and 4-hydroxybenzoic acids], which “ability to act as inducer” value is on record?
Answer: none of these compounds could act as effective inducers

Question: With O=C([O-])c1ccccc1.[Na+] [sodium benzoate] as the molecule, how does the “ability to act as inducer” value read?
Answer: ineffective

Question: Which “ability to act as inducer” value does the source give for O=C(O)c1c[nH]c2ccccc12 [indole-3-carboxylic acid] here?
Answer: none of these compounds could act as effective inducers

Question: With CC(C)c1ccc(CO)cc1 [cumic alcohol] as the molecule, how does the “ability to act as inducer” value read?
Answer: none of these compounds could act as effective inducers

Question: With Na^+ trimethyl cumate as the molecule, how does the “response compared with parental cumate” value read?
Answer: not as good as the parental cumate

Question: For Cc1ccc(CO)cc1 [4-methyl benzylalcohol], which “ability to act as inducer” value is on record?
Answer: none of these compounds could act as effective inducers

Question: For sodium toluate, which “ability to act as inducer” value is on record?
Answer: ineffective

Question: Which “ability to act as inducer” value does the source give for O=C(O)c1cc2ccccc2[nH]1 [indole-2-carboxylic acid] here?
Answer: none of these compounds could act as effective inducers

Question: Which “ability to act as inducer” value does the source give for ethyltoluene here?
Answer: none of these compounds could act as effective inducers

Question: With O=C(O)c1ccccc1 [benzoic acid, Benzoic acid] as the molecule, how does the “ability to act as inducer” value read?
Answer: none of these compounds could act as effective inducers

Same assay, conditions: 0.02 mM

Question: Which “ability to act as inducer” value does the source give for CN(C)c1ccc(C(=O)O)cc1 [DM PABA, Di-methyl p-aminobenzoic acid] here?
Answer: effective inducers

Same assay, conditions: 0.1 mM

Question: With CN(C)c1ccc(C(=O)O)cc1 [DM PABA, Di-methyl p-aminobenzoic acid] as the molecule, how does the “ability to act as inducer” value read?
Answer: just as good an inducer as parent cumate

Question: For Na^+ trimethyl cumate, which “ability to act as inducer” value is on record?
Answer: effective inducer
